We go through 8 compounds from paper PMC6259260, “3-Acetyloxy-2-cyano-2-(alkylaminocarbamoyl)propyl Groups as Biodegradable Protecting Groups of Nucleoside 5´-mono-Phosphates” (Molecules, 2011).

Data set [1] in a line: Non-enzymatic hydrolysis (hydrolytic stability) in buffer followed by RP HPLC. The class given is physicochemical. The following applies: pH 7.5, 37 °C. The method, then: Hydrolysis of triester 1 was studied at pH 7.5 and 37 °C by analyzing the composition of the aliquots withdrawn from the reaction mixture at appropriate time intervals by RP HPLC. The products formed were identified by spiking with authentic samples and by mass spectrometric analysis (HPLC/ESI-MS). At pH 7.5-10, hydrolysis of the first acetic ester linkages of 1 (Reaction A in Scheme 4) was first-order in hydroxide-ion concentration. […] The subsequent departure of the remnants of this protecting group by retro-aldol condensation gave diester 4 (Route C) without accumulation of the monodeacetylated triester 14 as an intermediate. […]
The reactions were carried out in sealed tubes immersed in a thermostated water bath (37.0 ± 0.1 °C). […] The hydronium ion concentration of the buffer solutions was calculated with the aid of the known pKa values of the buffer acid under the experimental conditions. […]
The enzymatic hydrolysis was carried out with Hog Liver Esterase (26 units mL^-1) in a 2-[4-(2-hydroxyethyl)piperazin-1-yl)]ethanesulfonic acid (HEPES) buffer (0.040/0.024 mol L^-1) at pH 7.5 and 37 °C. […] The composition of the samples was analyzed on an ODS Hypersil C18 column (4 × 250 mm 5 μm, flow rate 1 mL min^-1), using a mixture of acetic acid/sodium acetate buffer (0.045/0.015 mol L^-1) and MeCN, containing ammonium chloride (0.1 mol L^-1). […]

Data set [2] deals with hog liver carboxyesterase (HLE). Description: Hog liver carboxyesterase (HLE)-catalyzed hydrolysis/deprotection followed by HPLC. The class given is in vitro ADME. The following applies: for half-life at 0.4 mmol L^-1: hog liver carboxyesterase (HLE); for level of accumulation of the intermediate, of the initial concentration of 1: during HLE (26 units mL^-1) hydrolysis of 1, pH 7.5, 37 °C. The method, then:
The subsequent retro-aldol condensation of 14 to diester 4 ([M+H]^+ = 595.3; Reaction C) was, however, so fast that the amount of 14 remained less than 5% of the initial concentration of 1.
The reactions were carried out in sealed tubes immersed in a thermostated water bath (37.0 ± 0.1 °C). The oxonium ion concentration of the reaction solution (3.5 mL) was adjusted with glycine, 2-[4-(2-hydroxyethyl)piperazin-1-yl)]ethanesulfonic acid (HEPES) and 2-(N-morpholino)ethanesulfonic acid (MES) buffers. The ionic strength of the solutions was adjusted to 0.1 mol L^-1 with sodium chloride. The hydronium ion concentration of the buffer solutions was calculated with the aid of the known pKa values of the buffer acid under the experimental conditions. The initial substrate concentration was ca. 0.4 mmol L^-1.
The enzymatic hydrolysis was carried out with Hog Liver Esterase (26 units mL^-1) in a 2-[4-(2-hydroxyethyl)piperazin-1-yl)]ethanesulfonic acid (HEPES) buffer (0.040/0.024 mol L^-1) at pH 7.5 and 37 °C. The samples (200 μL) withdrawn at appropriate intervals were made acidic (pH 2) with 1 mol L^-1 aqueous hydrogen chloride to inactivate the enzyme and to quench the hydrolysis, cooled in an ice-bath and filtered with minisart RC 4 filters (0.45 μm). The composition of the samples was analyzed on an ODS Hypersil C18 column (4 × 250 mm 5 μm, flow rate 1 mL min^-1), using a mixture of acetic acid/sodium acetate buffer (0.045/0.015 mol L^-1) and MeCN, containing ammonium chloride (0.1 mol L^-1). A good separation of the product mixtures of 2 was obtained on using a 5 min isocratic elution with the buffer containing 2% MeCN, followed by a linear gradient (23 min) up to 40.0% MeCN. Signals were recorded on a UV-detector at a wavelength of 267 nm. The reaction products were identified by the mass spectra (LC/MS) using a mixture of water and acetonitrile containing a formic acid (0.1%) as an eluent (Gemini C18 column (2 × 150 mm 5 μm, flow rate 200 μL min^-1). The first order rate constants for the non-enzymatic hydrolysis of triester 1 were obtained by applying first-order rate-law to the diminution of the concentration of the starting material. The enzymatic deacetylations obeyed first-order kinetics at the high HLE concentrations employed.

Data set [3] has the same test system. Description: HLE-triggered hydrolysis in the presence of glutathione (GSH), followed by HPLC-ESI-MS. The following applies: [GSH] = 5.4 mM. Type of data set: in vitro ADME. The method, then:
The hydrolytic reactions of 1 was also carried out in the presence of glutathione ([GSH] = 5.4 mM) and carboxyesterase ([HLE] = 28.0 units mL^-1) in a 2-(N-morpholino)ethanesulfonic acid (MES) buffer (0.005/0.005 mol L^-1) at pH 6.2 and 37 °C. Under these conditions, the half-live for the deacetylation of 1 was 18 h. In 2 days, the starting material was converted almost quantitatively to a mixture of acetylated and deacetylated phosphodiester 4 and 16 ([4]/[16] is 1:1). At this stage, 2-cyano-N-(2-phenyl)ethylacrylamide (17) was captured as the glutathione conjugate (18; tR = 24.3 min, Route E). Product 18 was detected by both HPLC and LC-MS analysis ([M+H]^+ = 508.8; see Figure 3). In addition, glutathione was converted to its oxidized form glutathione disulfide (GSSG; [M+H]^+ = 613.5 and tR = 9.9 min).
The reactions were carried out in sealed tubes immersed in a thermostated water bath (37.0 ± 0.1 °C). The oxonium ion concentration of the reaction solution (3.5 mL) was adjusted with glycine, 2-[4-(2-hydroxyethyl)piperazin-1-yl)]ethanesulfonic acid (HEPES) and 2-(N-morpholino)ethanesulfonic acid (MES) buffers. The ionic strength of the solutions was adjusted to 0.1 mol L^-1 with sodium chloride. The hydronium ion concentration of the buffer solutions was calculated with the aid of the known pKa values of the buffer acid under the experimental conditions. […]

On the set-up of data set [4]: method as in PMID 19462989. The following applies: non-enzymatic, cited from earlier work; for half-life for the disappearance: pH 7.5, 25 °C.
The subject of data set [5] is hog liver carboxyesterase (HLE). The arrangement: method as in PMID 19462989. Particulars: cited from earlier work.
The mark [6] stands for this setting: HLE 26 units mL^-1, pH 7.5, 37 °C.
Where [7] appears, read: HLE 26 units mL^-1, pH 7.5, 25 °C.

The structures appear in SMILES notation. Like-named read-outs stand apart in the source and are kept apart here. Marks after values point to notes of the source that are not given here.

As for `CC(=O)OCC(C#N)(COP(=O)(OCC1OC(n2cc(C)c(=O)[nH]c2=O)CC1O)OCC(C#N)(COC(C)=O)C(=O)NCCc1ccccc1)C(=O)NCCc1ccccc1` (stereo not shown) [compound 1, Thymidine 5´-bis[3-acetyloxy-2-cyano-2-(2-phenylethylcarbamoyl)propyl]phosphate], the half-life at 0.4 mmol L^-1 in data set [1] (aqueous buffer (glycine, HEPES or MES buffers), no enzyme, read-out: half-life, hydrolysis of the first acetic ester linkage (Reaction A) (converted)) is 28 h; in data set [2] (pig, HLE 26 units mL^-1, pH 7.5, 37 °C, I = 0.1 mol L^-1, read-out: t1/2 Reaction A (enzymatic deacetylation of triester, disappearance of starting material)), 0.0633 h; in data set [3] (hog, [HLE] = 28.0 units mL^-1, MES buffer, pH 6.2, 37 °C, read-out: half-life for the deacetylation (converted)), 18 h. Besides, in data set [1], the “first-order rate constant k, hydrolysis of the first acetic ester linkage (Reaction A)” value came out at 7e-06 s⁻¹. For the same compound, the “conversion to 5´-TMP, times as fast as 3 (comparison of half-lives of Reaction D)” value in data set [2] (HLE, pH 7.5, 37 °C) worked out at 3 times.
With `CCOC(=O)C(COCOC(C)=O)(COP(=O)(OC[C@H]1O[C@@H](n2cc(C)c(=O)[nH]c2=O)C[C@@H]1O)OCC(COCOC(C)=O)(C(=O)OCC)C(=O)OCC)C(=O)OCC` [compound 2, thymidine 5´-bis[3-acetyloxymethoxy-2,2-bis(ethoxycarbonyl)propyl]phosphate], the “half-life, first of the consecutive deacetylations” value in data set [4] (pH 7.5, 37 °C) was 32 h. Besides, in data set [5] (setting [6]), the “t1/2 Reaction A” value is given as 0.17 min, the “t1/2 Reaction B” value was 0.90 min, the “t1/2 Reaction C” value is given as 10.4 min and the “t1/2 Reaction D” value is 3.5 h.
On to `CCOC(=O)C(COC(C)=O)(COP(=O)(OC[C@H]1O[C@@H](n2cc(C)c(=O)[nH]c2=O)C[C@@H]1O)OCC(COC(C)=O)(C(=O)OCC)C(=O)OCC)C(=O)OCC` [compound 3, thymidine 5´-bis[3-acetyloxy-2,2-bis(ethoxycarbonyl)propyl]phosphate], for which the “half-life for the disappearance” value in data set [4] was 20 days. Moreover, in data set [5] (setting [7]), the “t1/2 Reaction B” value is given as 31^a min and the “t1/2 Reaction C” value is on record as 31^a min. In data set [5] (setting [6]), the “t1/2 Reaction A” value was 3.2 min and the “t1/2 Reaction D” value is 151 h.
Consider `CC(=O)OCC(C#N)(COP(=O)(O)OCC1OC(n2cc(C)c(=O)[nH]c2=O)CC1O)C(=O)NCCc1ccccc1` (stereo not shown) [compound 4], for which, in data set [2] (hog, HLE 26 units mL^-1, pH 7.5, 37 °C, read-out: half-life for the disappearance (converted)), the half-life at 0.4 mmol L^-1 was 47 h.
With `CCOC(=O)C(COC(C)=O)(COP(=O)(O)OC[C@H]1O[C@@H](n2cc(C)c(=O)[nH]c2=O)C[C@@H]1O)C(=O)OCC` [compound 6], the “half-life for the disappearance” value in data set [4] was 160.4 days.
Consider `CC(=O)OCC(C#N)(COP(=O)(OCC1OC(n2cc(C)c(=O)[nH]c2=O)CC1O)OCC(C#N)(CO)C(=O)NCCc1ccccc1)C(=O)NCCc1ccccc1` (stereo not shown) [compound 14], for which, in data set [2] (setting [6]), the “share of deacetylation to 15 (Reaction B) in the total disappearance of 14” value is reported as “approximately 10%”. For the same compound, the “share of retro-aldol condensation to diester 4 in the overall breakdown of 14” value in data set [2] (HLE, pH 7.5, 37 °C) is on record as 90%. Besides, the “level of accumulation of the intermediate, of the initial concentration of 1” value in data set [2] is on record as “less than 5%”.
Regarding `Cc1cn(C2CC(O)C(COP(=O)(O)OCC(C#N)(CO)C(=O)NCCc3ccccc3)O2)c(=O)[nH]c1=O` (stereo not shown) [compound 16], the “level of accumulation of the intermediate, of the initial concentration of 1” value in data set [2] is “below 5%”.
As for `C=C(C#N)C(=O)NCCc1ccccc1` [compound 17, 2-cyano-N-(2-phenylethyl)acrylamide], the “capture of the electrophilic by-product by glutathione” value in data set [3] ([HLE] = 28.0 units mL^-1, pH 6.2, 37 °C, detected as conjugate 18) is on record as “largely trapped by glutathione”.
